Literature values in patent US20250367122A1, “PHARMACEUTICAL COMPOSITION CONTAINING 1-{2-[(3S,4R)-1-{[(3R,4R)-1-CYCLOPENTYL-3-FLUORO-4-(4-METHOXYPHENYL)PYRROLIDIN-3-YL]CARBONYL}-4-(METHOXYMETHYL)PYRROLIDIN-3-YL]-5-(TRIFLUOROMETHYL)PHENYL}PIPERIDINE-4-CARBOXYLIC ACID OR PHARMACEUTICALLY ACCEPTABLE SALT OR CO-CRYSTAL THEREOF” (MITSUBISHI TANABE PHARMA CORPORATION, priority 2022, published 2025).

System: melanocortin receptor (MCR)
Settings: as described in Patent Document 1

- MCR activation effect: excellent
SMILES: COC[C@H]1CN(C(=O)[C@]2(F)CN(C3CCCC3)C[C@H]2c2ccc(OC)cc2)C[C@@H]1c1ccc(C(F)(F)F)cc1N1CCC(C(=O)O)CC1 [Compound A, 1-{2-[(3S,4R)-1-{[(3R,4R)-1-cyclopentyl-3-fluoro-4-(4-methoxyphenyl)pyrrolidin-3-yl]carbonyl}-4-(methoxymethyl)pyrrolidin-3-yl]-5-(trifluoromethyl)phenyl}piperidine-4-carboxylic acid]
